Reference: patent US20260217701A1, “SELECTIVE BET INHIBITORS AND USES THEREOF” (Tay Therapeutics Limited, priority 2022, published 2026)
Marks after values point to notes of the source that are not given here.

Key:
hydroxyproline = experiment: Bleomycin IPF model: hydroxyproline content in lung lysates; assay type: in vivo, C57BI/6J mice; design: Hydroxyproline Levels, Mean: unit not given here
Procedure: (§1) Male C57BI/6J mice, aged 12 weeks with an approximate weight of 25-30 g were obtained from Jackson Laboratories (Bar Harbor, ME). Animals were acclimated for two weeks prior to study initiation, and were randomized into the experimental groups outlined in Table 32.
(§2) Intratracheal (IT) administration of Bleo or PBS control was conducted at the start of the study (Day 0). […] Animals were weighed on Day 0, and indexed boluses of PBS control (Group 1) or Bleo (Groups 2-6) were delivered by IT administration.
(§3) Following administration of Bleo, animals (n=10/group) were included in the study if they met the following guidelines on Day 7: (1) a predictable 5% loss in body weight, and (2) the presence of fibrotic pulmonary lesions, detected by micro-CT imaging. 10 animals from Group 1 additionally proceeded as controls. Animals that continued in the study on Day 7 received an oral gavage (OG) administration of PBS, Compound A (1 mg/kg, 3 mg/kg, 10 mg/kg), or Pirfenidone (300 mg/kg), as outlined in Table 31 in 25 μL boluses every other day (QOD), starting on Day 7. Compound A was formulated in 5% (v/v) DMSO/15% (v/v) PEG 400/80% (v/v) E-TPGS in purified water.
Animals were euthanized on Day 21 following Micro-CT imaging, and the right lung was collected for biochemical analysis, and the left lung was inflation-fixed for morphological assessments. A resection of the right lung was weighed and homogenized to determine total hydroxyproline levels by colorimetric assay, and the remaining lung lysate was saved for future analyses.

[1] = test system: IL-22, IFNγ, TNF, IL-17A, IL-12/IL-23p40; experiment: EAE study: serum cytokine analysis (Luminex); assay type: in vivo, C57BI/6 mice
Procedure: Experimental Method H: EAE in animals treated with a BET inhibitor and vehicle. Animals were assigned to the groups outlined in Table 38.
Compound A may be formulated as illustrated in Experimental Method A (see Table 2E.). A 40 mg/mL stock solution of Compound A in DMSO was prepared and aliquots stored at −20° C. On each day of preparation an e.g., 0.75 mL aliquot of thawed stock was diluted with an equal volume of DMSO. The remaining vehicle components were added to provide the highest dose and then diluted with vehicle to provide lower doses. A 30 mg/mL stock solution of FTY720 in ethanol was prepared and stored at −20° C. Daily, the stock solution was diluted with room temperature water to a final dosing concentration of 0.6 mg/mL. Formulated Compound A, FTY720 and vehicle were each at room temperature for dosing.
Female C57BI/6 mice (9 weeks old) were acclimated for seven days prior to study initiation. On Day-1, animals were assigned to groups in a balanced manner to achieve similar average weights across the different groups. Chronic EAE was induced in female C57BI/6 mice following immunization with an emulsion of MOG35-55/CFA on Day 0, followed by an injection of pertussis toxin two hours after the initial immunization. On Day 1, a second injection of pertussis toxin was administered 24 hours after the initial immunization. Mice were injected subcutaneously at two sites on the back with the MOG35-55/CFA emulsion (Hooke Kit™ MOG35-55/CFA Emulsion PTX). The first injection site was located approximately 1 cm caudal of the neckline (upper back), and the second injection site was approximately 2 cm cranial of the base of the tail (lower back). The injection volume was 0.1 mL for each injection. The pertussis toxin was administered at the described times through intraperitoneal injection at a concentration of 85 ng/dose for both injections.
On Day 28, all surviving mice except those in the FTY720 group had blood collected via retro-orbital sinus into serum separator tubes. Serum was isolated, frozen on dry ice, and stored at −80° C. for cytokine analysis. Cytokine analysis was performed using Luminex in serum samples, and the cytokines IL-22, IFNγ, TNF, IL-17A, IL-12/IL-23p40 were assessed.

[2] = test system: idiopathic pulmonary fibrosis (bleomycin); experiment: Bleomycin IPF model: oxygen saturation (pulse oximetry); assay type: in vivo, C57BI/6J mice; settings: for Oxygen saturation levels: Bleo mice
Procedure: as §1, §2, §3
Body weights were obtained at Day 0 at the start of the study, and again at Day 7 to determine if an animal continued in the study. Body weight was measured daily from Day 7 until Day 21, and oxygen saturation was measured by a pulse oximetry (MouseOx) system QOD from Day 7 until study completion on Day 21, and results were plotted and analyzed by Kaplan-Meier plots.

For `Cn1cc(-c2ccccc2)c(-c2cn(C)c(=O)c3[nH]c(-c4cnn(C(F)(F)F)c4)cc23)cc1=O` [Compound A, 6-methyl-4-(1-methyl-2-oxo-5-phenyl-1,2-dihydropyridin-4-yl)-2-(1-(trifluoromethyl)-1H-pyrazol-4-yl)-1,6-dihydro-7H-pyrrolo[2,3-c]pyridin-7-one], the “Hydroxyproline Levels, Mean” value (hydroxyproline; Bleo + Compound A (1 mg/kg) OG QOD from D7) was 0.05281, the “Hydroxyproline Levels, Mean” value (hydroxyproline; Bleo + Compound A (3 mg/kg) OG QOD from D7) was 0.05418 and the “Hydroxyproline Levels, Mean” value (hydroxyproline; Bleo + Compound A (10 mg/kg) OG QOD from D7) was 0.04627. The “Hydroxyproline levels relative to Group 2” value (hydroxyproline; Day 21, 1 mg/kg and 3 mg/kg) was “reduced levels of hydroxyproline”, the “Hydroxyproline levels, lower than IPF control group (Bleo+Saline)” value (hydroxyproline; Day 21, 10 mg/kg) was “about 60.4%” and the “IFNγ Mean Concentration (pg/mL) and (SEM)” value ([1]; Compound A 1 mg/kg, Day 28) was 1.9 (0.8) pg/mL. For the same compound, the “IL-12/IL-23p40 Mean Concentration (pg/mL) and (SEM)” value ([1]; Compound A 1 mg/kg, Day 28) was 34.7 (4.8)* pg/mL, the “IL-17A Mean Concentration (pg/mL) and (SEM)” value ([1]; Compound A 1 mg/kg, Day 28) was 0.5 (0.3) pg/mL and the “IL-22 Mean Concentration (pg/mL) and (SEM)” value ([1]; Compound A 1 mg/kg, Day 28) was 3.5 (1.4) pg/mL. The “TNF Mean Concentration (pg/mL) and (SEM)” value ([1]; Compound A 1 mg/kg, Day 28) was 0.8 (0.4) pg/mL, the “IFNγ Mean Concentration (pg/mL) and (SEM)” value ([1]; Compound A 3 mg/kg, Day 28) was 1.8 (0.4)* pg/mL and the “IL-12/IL-23p40 Mean Concentration (pg/mL) and (SEM)” value ([1]; Compound A 3 mg/kg, Day 28) was 27.7 (4.9)** pg/mL. The “IL-17A Mean Concentration (pg/mL) and (SEM)” value ([1]; Compound A 3 mg/kg, Day 28) was 1.6 (0.9) pg/mL, the “IL-22 Mean Concentration (pg/mL) and (SEM)” value ([1]; Compound A 3 mg/kg, Day 28) was 6.1 (3.0) pg/mL and the “TNF Mean Concentration (pg/mL) and (SEM)” value ([1]; Compound A 3 mg/kg, Day 28) was 1.4 (0.4) pg/mL. The “IFNγ Mean Concentration (pg/mL) and (SEM)” value ([1]; Compound A 10 mg/kg, Day 28) was 0.6 (0.1)*** pg/mL, the “IL-12/IL-23p40 Mean Concentration (pg/mL) and (SEM)” value ([1]; Compound A 10 mg/kg, Day 28) was 17.4 (1.5)*** pg/mL and the “IL-17A Mean Concentration (pg/mL) and (SEM)” value ([1]; Compound A 10 mg/kg, Day 28) was 0.4 (0.3) pg/mL. For the same compound, the “IL-22 Mean Concentration (pg/mL) and (SEM)” value ([1]; Compound A 10 mg/kg, Day 28) was 3.0 (0.7) pg/mL, the “TNF Mean Concentration (pg/mL) and (SEM)” value ([1]; Compound A 10 mg/kg, Day 28) was 0.4 (0.1) pg/mL and the “Concentration of IL-22, TNF, and IL-17A relative to vehicle” value ([1]; Day 28) was “nor were significant changes measured”. The “Concentration of IL-12/IL23p40” value ([1]; Day 28, 1 mg/kg, 3 mg/kg, and 10 mg/kg) was “dose dependent significant decreases”, the IFNγ concentrations ([1]; Day 28, 3 mg/kg and 10 mg/kg) was “dose dependent significant decrease” and the “Recovery in oxygen saturation relative to IPF control group (Bleo+Saline)” value ([2]; 3 mg/kg and 10 mg/kg) was “significant recovery in oxygen saturation levels”. The “Mean Oxygen Saturation” value ([2]; Bleo + Compound A (1 mg/kg) OG QOD from D7, Day 7) was 80.6, the “Mean Oxygen Saturation” value ([2]; Bleo + Compound A (1 mg/kg) OG QOD from D7, Day 9) was 84.25 and the “Mean Oxygen Saturation” value ([2]; Bleo + Compound A (1 mg/kg) OG QOD from D7, Day 11) was 87.17. The “Mean Oxygen Saturation” value ([2]; Bleo + Compound A (1 mg/kg) OG QOD from D7, Day 13) was 88.03, the “Mean Oxygen Saturation” value ([2]; Bleo + Compound A (1 mg/kg) OG QOD from D7, Day 15) was 88.58 and the “Mean Oxygen Saturation” value ([2]; Bleo + Compound A (1 mg/kg) OG QOD from D7, Day 17) was 88.48. The “Mean Oxygen Saturation” value ([2]; Bleo + Compound A (1 mg/kg) OG QOD from D7, Day 19) was 89.87, the “Mean Oxygen Saturation” value ([2]; Bleo + Compound A (1 mg/kg) OG QOD from D7, Day 21) was 87.67 and the “Mean Oxygen Saturation” value ([2]; Bleo + Compound A (3 mg/kg) OG QOD from D7, Day 7) was 82.08. For the same compound, the “Mean Oxygen Saturation” value ([2]; Bleo + Compound A (3 mg/kg) OG QOD from D7, Day 9) was 83.77, the “Mean Oxygen Saturation” value ([2]; Bleo + Compound A (3 mg/kg) OG QOD from D7, Day 11) was 85.05 and the “Mean Oxygen Saturation” value ([2]; Bleo + Compound A (3 mg/kg) OG QOD from D7, Day 13) was 85.67. The “Mean Oxygen Saturation” value ([2]; Bleo + Compound A (3 mg/kg) OG QOD from D7, Day 15) was 85.97, the “Mean Oxygen Saturation” value ([2]; Bleo + Compound A (3 mg/kg) OG QOD from D7, Day 17) was 89.18 and the “Mean Oxygen Saturation” value ([2]; Bleo + Compound A (3 mg/kg) OG QOD from D7, Day 19) was 89.6. The “Mean Oxygen Saturation” value ([2]; Bleo + Compound A (3 mg/kg) OG QOD from D7, Day 21) was 89.88, the “Mean Oxygen Saturation” value ([2]; Bleo + Compound A (10 mg/kg) OG QOD from D7, Day 7) was 82.75 and the “Mean Oxygen Saturation” value ([2]; Bleo + Compound A (10 mg/kg) OG QOD from D7, Day 9) was 84.07. The “Mean Oxygen Saturation” value ([2]; Bleo + Compound A (10 mg/kg) OG QOD from D7, Day 11) was 86.87, the “Mean Oxygen Saturation” value ([2]; Bleo + Compound A (10 mg/kg) OG QOD from D7, Day 13) was 87.5 and the “Mean Oxygen Saturation” value ([2]; Bleo + Compound A (10 mg/kg) OG QOD from D7, Day 15) was 88.87. The “Mean Oxygen Saturation” value ([2]; Bleo + Compound A (10 mg/kg) OG QOD from D7, Day 17) was 89.23, the “Mean Oxygen Saturation” value ([2]; Bleo + Compound A (10 mg/kg) OG QOD from D7, Day 19) was 92.22 and the “Mean Oxygen Saturation” value ([2]; Bleo + Compound A (10 mg/kg) OG QOD from D7, Day 21) was 93.58. The Oxygen saturation levels ([2]; 3 mg/kg, Day 21) was “about 90%”, the Oxygen saturation levels ([2]; 10 mg/kg, Day 21) was “about 93.6%” and the “Improvement of oxygen saturation versus pirfenidone” value ([2]; IPF model) was “superior to pirfenidone in improving oxygen saturation”.
